Laboratory results from publication PMC6009956, “Design, synthesis and biological activity of N^4-phenylsubstituted-7H-pyrrolo[2,3-d]pyrimidin-4-amines as dual inhibitors of aurora kinase A and epidermal growth factor receptor kinase” (Journal of Enzyme Inhibition and Medicinal Chemistry, 2017).
Read-outs that look alike come from different tables or passages of the source.

How the values were obtained:
aurora A kinase (AURKA) = biological target: T1, aurora A kinase (AURKA) (Homo sapiens, UniProt O14965); assay: ADP-Glo kinase assay, Aurora A; format: biochemical
T1 construct: purchased BPS Bioscience (assay run externally by the vendor)
T1 sequence (O14965 1-403): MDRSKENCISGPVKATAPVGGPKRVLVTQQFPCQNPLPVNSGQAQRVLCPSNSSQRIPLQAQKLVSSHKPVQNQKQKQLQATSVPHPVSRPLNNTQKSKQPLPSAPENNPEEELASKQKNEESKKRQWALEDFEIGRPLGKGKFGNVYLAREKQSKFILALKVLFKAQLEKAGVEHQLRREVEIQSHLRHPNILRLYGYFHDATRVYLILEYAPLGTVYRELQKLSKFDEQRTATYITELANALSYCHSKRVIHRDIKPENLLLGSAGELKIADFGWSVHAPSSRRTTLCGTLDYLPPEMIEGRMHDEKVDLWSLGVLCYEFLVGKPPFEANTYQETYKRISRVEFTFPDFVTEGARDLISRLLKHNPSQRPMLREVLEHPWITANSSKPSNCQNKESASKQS

EGFR = EGFR (Homo sapiens, UniProt P00533); assay: ADP-Glo kinase assay, EGFR; format: biochemical; parameters: purchased BPS Bioscience (assay run externally by the vendor)
[1] = 10 µM ATP, triplicate, read-out: AURKA IC50 ± SD
[2] = 10 µM ATP/0.2 mg/ml Kemptide, read-out: Aurora A IC50 (dose-response curve, supplement)
[3] = 10 µM ATP, triplicate, read-out: EGFR IC50 ± SD
[4] = 10 µM ATP/0.2 mg/ml Poly-Glu-Tyr, read-out: EGFR IC50 (dose-response curve, supplement)

EGFR, sequence (P00533 25-1210): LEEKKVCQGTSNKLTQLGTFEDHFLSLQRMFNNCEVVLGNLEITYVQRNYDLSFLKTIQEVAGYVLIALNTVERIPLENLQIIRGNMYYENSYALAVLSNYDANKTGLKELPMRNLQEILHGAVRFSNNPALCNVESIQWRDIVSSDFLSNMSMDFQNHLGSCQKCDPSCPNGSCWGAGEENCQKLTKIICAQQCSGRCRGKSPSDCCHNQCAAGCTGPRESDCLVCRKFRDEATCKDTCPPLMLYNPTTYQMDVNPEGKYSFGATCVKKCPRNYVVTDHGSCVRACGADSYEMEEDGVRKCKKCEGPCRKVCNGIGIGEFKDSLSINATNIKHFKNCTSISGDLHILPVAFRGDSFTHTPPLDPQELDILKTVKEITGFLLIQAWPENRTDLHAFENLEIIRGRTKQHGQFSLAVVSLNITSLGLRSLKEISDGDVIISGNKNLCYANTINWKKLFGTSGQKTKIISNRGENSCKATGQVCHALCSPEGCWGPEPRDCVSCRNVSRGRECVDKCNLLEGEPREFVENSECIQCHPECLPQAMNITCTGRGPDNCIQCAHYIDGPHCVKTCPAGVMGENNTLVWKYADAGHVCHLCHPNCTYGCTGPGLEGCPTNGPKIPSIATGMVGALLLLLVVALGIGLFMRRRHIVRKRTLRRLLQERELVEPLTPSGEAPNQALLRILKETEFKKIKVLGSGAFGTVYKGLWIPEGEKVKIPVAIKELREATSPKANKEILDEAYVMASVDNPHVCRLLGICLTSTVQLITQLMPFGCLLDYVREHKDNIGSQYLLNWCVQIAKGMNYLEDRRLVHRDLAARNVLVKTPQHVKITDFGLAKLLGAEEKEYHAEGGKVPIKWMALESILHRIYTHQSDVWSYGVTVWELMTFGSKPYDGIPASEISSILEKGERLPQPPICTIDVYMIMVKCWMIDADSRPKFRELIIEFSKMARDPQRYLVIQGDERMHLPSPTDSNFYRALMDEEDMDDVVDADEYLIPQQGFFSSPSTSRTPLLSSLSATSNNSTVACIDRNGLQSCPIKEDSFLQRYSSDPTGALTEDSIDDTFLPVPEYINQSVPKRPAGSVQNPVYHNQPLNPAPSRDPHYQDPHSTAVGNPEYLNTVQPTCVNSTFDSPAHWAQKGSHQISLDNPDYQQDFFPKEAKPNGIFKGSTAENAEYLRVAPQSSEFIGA

## c1ccc(Oc2ccc(Nc3ncnc4[nH]ccc34)cc2)cc1 [Compound 17, N^4-(4-phenoxyphenyl)-7H-pyrrolo[2,3-d]pyrimidin-4-amine]
Aurora A kinase (AURKA); [1]
  IC50: 13300 ± 3570 nM
Aurora A kinase (AURKA); [2]
  IC50: 12900 nM
Aurora A kinase (AURKA); Log[nM] 0
  Aurora A % Activity Set1: 100%
  Aurora A % Activity Set2: 94%
  Aurora A % Activity Set3: 93%
Aurora A kinase (AURKA); Log[nM] 1.0
  Aurora A % Activity Set1: 97%
  Aurora A % Activity Set2: 97%
  Aurora A % Activity Set3: 97%
Aurora A kinase (AURKA); Log[nM] 1.5
  Aurora A % Activity Set1: 103%
  Aurora A % Activity Set2: 99%
  Aurora A % Activity Set3: 106%
Aurora A kinase (AURKA); Log[nM] 2.0
  Aurora A % Activity Set1: 97%
  Aurora A % Activity Set2: 100%
  Aurora A % Activity Set3: 98%
Aurora A kinase (AURKA); Log[nM] 2.5
  Aurora A % Activity Set1: 102%
  Aurora A % Activity Set2: 96%
  Aurora A % Activity Set3: 95%
Aurora A kinase (AURKA); Log[nM] 3.0
  Aurora A % Activity Set1: 77%
  Aurora A % Activity Set2: 81%
  Aurora A % Activity Set3: 79%
Aurora A kinase (AURKA); Log[nM] 3.5
  Aurora A % Activity Set1: 65%
  Aurora A % Activity Set2: 63%
  Aurora A % Activity Set3: 63%
Aurora A kinase (AURKA); Log[nM] 4.0
  Aurora A % Activity Set1: 46%
  Aurora A % Activity Set2: 42%
  Aurora A % Activity Set3: 44%
Aurora A kinase (AURKA); Log[nM] 4.5
  Aurora A % Activity Set1: 41%
  Aurora A % Activity Set2: 39%
  Aurora A % Activity Set3: 39%
Aurora A kinase (AURKA); Log[nM] 5.0
  Aurora A % Activity Set1: 34%
  Aurora A % Activity Set2: 34%
  Aurora A % Activity Set3: 32%
EGFR; [3]
  IC50: 111 ± 15.1 nM
EGFR; [4]
  IC50: 110 nM
EGFR; Log[nM] 0
  EGFR % Activity Set1: 93%
  EGFR % Activity Set2: 101%
  EGFR % Activity Set3: 99%
EGFR; Log[nM] 1.0
  EGFR % Activity Set1: 90%
  EGFR % Activity Set2: 91%
  EGFR % Activity Set3: 97%
EGFR; Log[nM] 1.5
  EGFR % Activity Set1: 72%
  EGFR % Activity Set2: 77%
  EGFR % Activity Set3: 83%
EGFR; Log[nM] 2.0
  EGFR % Activity Set1: 49%
  EGFR % Activity Set2: 51%
  EGFR % Activity Set3: 55%
EGFR; Log[nM] 2.5
  EGFR % Activity Set1: 24%
  EGFR % Activity Set2: 23%
  EGFR % Activity Set3: 29%
EGFR; Log[nM] 3.0
  EGFR % Activity Set1: 11%
  EGFR % Activity Set2: 10%
  EGFR % Activity Set3: 12%
EGFR; Log[nM] 3.5
  EGFR % Activity Set1: 5%
  EGFR % Activity Set2: 5%
  EGFR % Activity Set3: 5%
EGFR; Log[nM] 4.0
  EGFR % Activity Set1: 4%
  EGFR % Activity Set2: 4%
  EGFR % Activity Set3: 5%
EGFR; Log[nM] 4.5
  EGFR % Activity Set1: 5%
  EGFR % Activity Set2: 5%
  EGFR % Activity Set3: 5%
EGFR; Log[nM] 5.0
  EGFR % Activity Set1: 4%
  EGFR % Activity Set2: 4%
  EGFR % Activity Set3: 4%

## Cc1cccc(Nc2ncnc3[nH]ccc23)c1 [Compound 12, N^4-(3-methylaniline)-7H-pyrrolo[2,3-d]pyrimidin-4-amine]
Aurora A kinase (AURKA); [1]
  IC50: 3430 ± 120 nM
Aurora A kinase (AURKA); [2]
  IC50: 3400 nM
Aurora A kinase (AURKA); Log[nM] 0
  Aurora A % Activity Set1: 101%
  Aurora A % Activity Set2: 105%
  Aurora A % Activity Set3: 95%
Aurora A kinase (AURKA); Log[nM] 1.0
  Aurora A % Activity Set1: 100%
  Aurora A % Activity Set2: 102%
  Aurora A % Activity Set3: 97%
Aurora A kinase (AURKA); Log[nM] 1.5
  Aurora A % Activity Set1: 97%
  Aurora A % Activity Set2: 100%
  Aurora A % Activity Set3: 97%
Aurora A kinase (AURKA); Log[nM] 2.0
  Aurora A % Activity Set1: 96%
  Aurora A % Activity Set2: 101%
  Aurora A % Activity Set3: 105%
Aurora A kinase (AURKA); Log[nM] 2.5
  Aurora A % Activity Set1: 89%
  Aurora A % Activity Set2: 95%
  Aurora A % Activity Set3: 95%
Aurora A kinase (AURKA); Log[nM] 3.0
  Aurora A % Activity Set1: 89%
  Aurora A % Activity Set2: 91%
  Aurora A % Activity Set3: 92%
Aurora A kinase (AURKA); Log[nM] 3.5
  Aurora A % Activity Set1: 48%
  Aurora A % Activity Set2: 50%
  Aurora A % Activity Set3: 53%
Aurora A kinase (AURKA); Log[nM] 4.0
  Aurora A % Activity Set1: 17%
  Aurora A % Activity Set2: 17%
  Aurora A % Activity Set3: 17%
Aurora A kinase (AURKA); Log[nM] 4.5
  Aurora A % Activity Set1: 7%
  Aurora A % Activity Set2: 8%
  Aurora A % Activity Set3: 8%
Aurora A kinase (AURKA); Log[nM] 5.0
  Aurora A % Activity Set1: 4%
  Aurora A % Activity Set2: 4%
  Aurora A % Activity Set3: 3%
EGFR; [3]
  IC50: 20 ± 3.6 nM
EGFR; [4]
  IC50: 19.9 nM
EGFR; Log[nM] 0
  EGFR % Activity Set1: 77%
  EGFR % Activity Set2: 88%
  EGFR % Activity Set3: 76%
EGFR; Log[nM] 1.0
  EGFR % Activity Set1: 69%
  EGFR % Activity Set2: 75%
  EGFR % Activity Set3: 66%
EGFR; Log[nM] 1.5
  EGFR % Activity Set1: 34%
  EGFR % Activity Set2: 39%
  EGFR % Activity Set3: 33%
EGFR; Log[nM] 2.0
  EGFR % Activity Set1: 19%
  EGFR % Activity Set2: 19%
  EGFR % Activity Set3: 16%
EGFR; Log[nM] 2.5
  EGFR % Activity Set1: 10%
  EGFR % Activity Set2: 9%
  EGFR % Activity Set3: 8%
EGFR; Log[nM] 3.0
  EGFR % Activity Set1: 5%
  EGFR % Activity Set2: 5%
  EGFR % Activity Set3: 5%
EGFR; Log[nM] 3.5
  EGFR % Activity Set1: 2%
  EGFR % Activity Set2: 9%
  EGFR % Activity Set3: 2%
EGFR; Log[nM] 4.0
  EGFR % Activity Set1: 1%
  EGFR % Activity Set2: 1%
  EGFR % Activity Set3: 1%
EGFR; Log[nM] 4.5
  EGFR % Activity Set1: 0%
  EGFR % Activity Set2: 0%
  EGFR % Activity Set3: 0%
EGFR; Log[nM] 5.0
  EGFR % Activity Set1: 0%
  EGFR % Activity Set2: 0%
  EGFR % Activity Set3: 0%

## Fc1cc(Nc2ncnc3[nH]ccc23)ccc1Cl [Compound 3, N^4-(3-fluoro-4-chlorophenyl)-7H-pyrrolo[2,3-d]pyrimidine-4-amine]
Aurora A kinase (AURKA); [1]
  IC50: 3290 ± 150 nM
Aurora A kinase (AURKA); [2]
  IC50: 3300 nM
Aurora A kinase (AURKA); Log[nM] 0
  Aurora A % Activity Set1: 95%
  Aurora A % Activity Set2: 93%
  Aurora A % Activity Set3: 100%
Aurora A kinase (AURKA); Log[nM] 1.0
  Aurora A % Activity Set1: 99%
  Aurora A % Activity Set2: 96%
  Aurora A % Activity Set3: 101%
Aurora A kinase (AURKA); Log[nM] 1.5
  Aurora A % Activity Set1: 99%
  Aurora A % Activity Set2: 94%
  Aurora A % Activity Set3: 105%
Aurora A kinase (AURKA); Log[nM] 2.0
  Aurora A % Activity Set1: 105%
  Aurora A % Activity Set2: 104%
  Aurora A % Activity Set3: 107%
Aurora A kinase (AURKA); Log[nM] 2.5
  Aurora A % Activity Set1: 104%
  Aurora A % Activity Set2: 105%
  Aurora A % Activity Set3: 103%
Aurora A kinase (AURKA); Log[nM] 3.0
  Aurora A % Activity Set1: 78%
  Aurora A % Activity Set2: 75%
  Aurora A % Activity Set3: 77%
Aurora A kinase (AURKA); Log[nM] 3.5
  Aurora A % Activity Set1: 53%
  Aurora A % Activity Set2: 57%
  Aurora A % Activity Set3: 52%
Aurora A kinase (AURKA); Log[nM] 4.0
  Aurora A % Activity Set1: 17%
  Aurora A % Activity Set2: 16%
  Aurora A % Activity Set3: 16%
Aurora A kinase (AURKA); Log[nM] 4.5
  Aurora A % Activity Set1: 7%
  Aurora A % Activity Set2: 6%
  Aurora A % Activity Set3: 7%
Aurora A kinase (AURKA); Log[nM] 5.0
  Aurora A % Activity Set1: 6%
  Aurora A % Activity Set2: 5%
  Aurora A % Activity Set3: 5%
EGFR
  EGFR inhibition (in words): single-digit nanomolar EGFR inhibition
EGFR; [3]
  IC50: 5.98 ± 0.61 nM
EGFR; [4]
  IC50: 5.9 nM
EGFR; Log[nM] 0
  EGFR % Activity Set1: 57%
  EGFR % Activity Set2: 58%
  EGFR % Activity Set3: 56%
EGFR; Log[nM] 1.0
  EGFR % Activity Set1: 38%
  EGFR % Activity Set2: 37%
  EGFR % Activity Set3: 40%
EGFR; Log[nM] 1.5
  EGFR % Activity Set1: 13%
  EGFR % Activity Set2: 16%
  EGFR % Activity Set3: 16%
EGFR; Log[nM] 2.0
  EGFR % Activity Set1: 7%
  EGFR % Activity Set2: 7%
  EGFR % Activity Set3: 8%
EGFR; Log[nM] 2.5
  EGFR % Activity Set1: 2%
  EGFR % Activity Set2: 4%
  EGFR % Activity Set3: 3%
EGFR; Log[nM] 3.0
  EGFR % Activity Set1: 1%
  EGFR % Activity Set2: 1%
  EGFR % Activity Set3: 2%
EGFR; Log[nM] 3.5
  EGFR % Activity Set1: 0%
  EGFR % Activity Set2: 1%
  EGFR % Activity Set3: 0%
EGFR; Log[nM] 4.0
  EGFR % Activity Set1: 0%
  EGFR % Activity Set2: 0%
  EGFR % Activity Set3: 0%
EGFR; Log[nM] 4.5
  EGFR % Activity Set1: 0%
  EGFR % Activity Set2: 0%
  EGFR % Activity Set3: 0%
EGFR; Log[nM] 5.0
  EGFR % Activity Set1: 0%
  EGFR % Activity Set2: 0%
  EGFR % Activity Set3: 0%
